Results as given in US10577363B2, “Substituted piperidine compounds” (EPIZYME, INC., priority 2014, dated 2020).

Columns and labels:
SMYD3 [1] = target: T1, SMYD3 (Homo sapiens (Human), UniProt Q9H7B4); experiment: SMYD3 biochemical assay (SPA, 3H-SAM methylation of MEKK2 protein substrate); conditions: read-out: SMYD3 Biochem IC50*
Method in brief: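 Full-length native human SMYD3 (E. coli-expressed, tags removed) preincubated with compounds 30 min at room temperature, then reaction started with 3H-SAM and GST-tagged MEKK2 protein in 25 mM Tris-Cl pH 8.0, 1 mM TCEP, 0.005% BSG, 0.005% Tween 20. Quenched with unlabelled SAM (100 uM final); 3H-MEKK2 counted by SPA.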

SMYD3 [2] = target: T1, SMYD3; experiment: SMYD3 cell assay (Trimethyl-MEKK2 In-Cell Western in 293T/17 cells); type: cell-based; conditions: read-out: SMYD3 Cell IC50*
Method in brief: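 In-Cell Western ratio of trimethyl-Lys260 MEKK2 to anti-flag signal; percent inhibition from DMSO and maximum-inhibition controls, IC50 by non-linear regression, triplicates.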

[3] = IC50 values are an average of n = 1 to n = 50

T1 sequence (Q9H7B4 whole entry): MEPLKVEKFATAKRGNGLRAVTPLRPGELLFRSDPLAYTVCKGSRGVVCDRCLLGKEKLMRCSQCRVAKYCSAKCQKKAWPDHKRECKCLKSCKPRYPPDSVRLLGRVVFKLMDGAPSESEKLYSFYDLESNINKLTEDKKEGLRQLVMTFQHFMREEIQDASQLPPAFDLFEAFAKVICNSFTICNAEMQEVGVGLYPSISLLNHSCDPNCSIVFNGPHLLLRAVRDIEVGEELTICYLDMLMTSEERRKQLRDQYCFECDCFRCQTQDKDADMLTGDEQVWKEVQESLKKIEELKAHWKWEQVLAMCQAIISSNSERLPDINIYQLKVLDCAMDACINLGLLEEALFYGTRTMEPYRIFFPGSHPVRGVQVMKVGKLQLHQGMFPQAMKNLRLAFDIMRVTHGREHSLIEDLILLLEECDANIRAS

Row | SMILES | IC50 (SMYD3 [1]) | IC50 (SMYD3 [2]) | IC50 (SMYD3 [1]; [3]) | IC50 (SMYD3 [2]; [3])
1 | O=C(N[C@H]1C[C@H]2CC[C@@H](C1)N2S(=O)(=O)C[C@H]1CCCN1)c1cc(C2CC2)on1 [compound 956, 5-cyclopropyl-N-((1R,3R,5S)-8-((((R)-pyrrolidin-2-yl)methyl)sulfonyl)-8-azabicyclo[3.2.1]octan-3-yl)isoxazole-3-carboxamide] | 0.0596 µM | 0.733 µM |  | 
2 | C[C@H]1CN(S(=O)(=O)[C@H]2CC[C@@H](N(C)C)CC2)CC[C@H]1NC(=O)c1cc(C2CC2)on1 [compound 957, 5-cyclopropyl-N-((3S,4R)-1-(((1s,4R)-4-(dimethylamino)cyclohexyl)sulfonyl)-3-methylpiperidin-4-yl)isoxazole-3-carboxamide] | 0.069 µM | 0.512 µM |  | 
3 | O=C(N[C@H]1C[C@H]2CC[C@@H](C1)N2S(=O)(=O)N1CCC(Nc2ncccn2)CC1)c1cc(C2CC2)on1 [compound 958, 5-cyclopropyl-N-((1R,3r,5S)-8-((4-(pyrimidin-2-ylamino)piperidin-1-yl)sulfonyl)-8-azabicyclo[3.2.1]octan-3-yl)isoxazole-3-carboxamide] | 0.0767 µM | 0.486 µM |  | 
4 | NCCc1ccc(S(=O)(=O)N2[C@@H]3CC[C@H]2C[C@@H](NC(=O)c2cc(C4CC4)on2)C3)cc1 [compound 959, N-((1R,3r,5S)-8-((4-(2-aminoethyl)phenyl)sulfonyl)-8-azabicyclo[3.2.1]octan-3-yl)-5-cyclopropylisoxazole-3-carboxamide] | 0.0797 µM | ≥ 10 µM |  | 
5 | C[C@H]1C[C@@H](NC(=O)c2cc(C3CC3)on2)CCN1S(=O)(=O)N1CCNC[C@H]1c1ccccc1 [compound 960, 5-cyclopropyl-N-((2S,4S)-2-methyl-1-(((R)-2-phenylpiperazin-1-yl)sulfonyl)piperidin-4-yl)isoxazole-3-carboxamide] | 0.0806 µM | 1.35 µM |  | 
6 | CN(CCC(F)(F)F)C1CCN(S(=O)(=O)N2[C@@H]3CC[C@H]2C[C@@H](NC(=O)c2cc(C4CC4)on2)C3)CC1 [compound 961, 5-cyclopropyl-N-((1R,3r,5S)-8-((4-(methyl(3,3,3-trifluoropropyl)amino)piperidin-1-yl)sulfonyl)-8-azabicyclo[3.2.1]octan-3-yl)isoxazole-3-carboxamide] | 0.0816 µM | 0.364 µM |  | 
7 | CNC(C)(C)c1ccc(S(=O)(=O)N2[C@@H]3CC[C@H]2C[C@@H](NC(=O)c2cc(C4CC4)on2)C3)cc1 [compound 962, 5-cyclopropyl-N-((1R,3r,5S)-8-((4-(2-(methylamino)propan-2-yl)phenyl)sulfonyl)-8-azabicyclo[3.2.1]octan-3-yl)isoxazole-3-carboxamide] | 0.0818 µM | 0.695 µM |  | 
8 | CCC1CN(C)CCN1S(=O)(=O)N1[C@@H]2CC[C@H]1C[C@@H](NC(=O)c1cc(C3CC3)on1)C2 (stereo partly drawn) [compound 963, 5-cyclopropyl-N-((1R,3r,5S)-8-((2-ethyl-4-methylpiperazin-1-yl)sulfonyl)-8-azabicyclo[3.2.1]octan-3-yl)isoxazole-3-carboxamide] | 0.0829 µM | 0.69 µM |  | 
9 | CN1CCCC[C@@H]1CS(=O)(=O)N1[C@@H]2CC[C@H]1C[C@@H](NC(=O)c1cc(C3CC3)on1)C2 [compound 964, 5-cyclopropyl-N-((1R,3R,5S)-8-((((R)-1-methylpiperidin-2-yl)methyl)sulfonyl)-8-azabicyclo[3.2.1]octan-3-yl)isoxazole-3-carboxamide] | 0.083 µM | 0.45 µM |  | 
10 | CCCc1cc(C(=O)N[C@H]2C[C@H]3CC[C@@H](C2)N3S(=O)(=O)CC2CCN(C)CC2)no1 [compound 965, N-((1R,3r,5S)-8-(((1-methylpiperidin-4-yl)methyl)sulfonyl)-8-azabicyclo[3.2.1]octan-3-yl)-5-propylisoxazole-3-carboxamide] | 0.0853 µM | 1.31 µM |  | 
11 | O=C(N[C@H]1CCN(S(=O)(=O)N2CCNCC2)[C@@H](Cc2ccccc2)C1)c1cc(C2CC2)on1 [compound 966, N-((2S,4S)-2-benzyl-1-(piperazin-1-ylsulfonyl)piperidin-4-yl)-5-cyclopropylisoxazole-3-carboxamide] | 0.0868 µM | 1.2 µM |  | 
12 | O=C(N[C@H]1C[C@H]2CC[C@@H](C1)N2S(=O)(=O)N1CC2CCC(C1)N2CCN1CCOCC1)c1cc(C2CC2)on1 [compound 967, 5-cyclopropyl-N-((1R,3r,5S)-8-((8-(2-morpholinoethyl)-3,8-diazabicyclo[3.2.1]octan-3-yl)sulfonyl)-8-azabicyclo[3.2.1]octan-3-yl)isoxazole-3-carboxamide] |  |  | 0.087 µM | 0.503 µM
13 | NCc1ccc(S(=O)(=O)N2[C@@H]3CC[C@H]2C[C@@H](NC(=O)c2cc(C4CC4)on2)C3)c(Cl)c1 [compound 968, N-((1R,3r,5S)-8-((4-(aminomethyl)-2-chlorophenyl)sulfony1)-8-azabicyclo[3.2.1]octan-3-yl)-5-cyclopropylisoxazole-3-carboxamide] |  |  | 0.0883 µM | ≥ 10 µM
14 | CN1CCC[C@@H]1CS(=O)(=O)N1[C@@H]2CC[C@H]1C[C@@H](NC(=O)c1cc(C3CC3)on1)C2 [compound 969, 5-cyclopropyl-N-((1R,3R,5S)-8-((((R)-1-methylpyrrolidin-2-yl)methyl)sulfonyl)-8-azabicyclo[3.2.1]octan-3-yl)isoxazole-3-carboxamide] |  |  | 0.0886 µM | 0.44 µM
15 | CCc1cc(C(=O)N[C@H]2C[C@H]3CC[C@@H](C2)N3S(=O)(=O)c2ccc(C(C)(C)N)cc2)no1 [compound 970, N-((1R,3r,5S)-8-((4-(2-aminopropan-2-yl)phenyl)sulfonyl)-8-azabicyclo[3.2.1]octan-3-yl)-5-ethylisoxazole-3-carboxamide] |  |  | 0.0893 µM | 0.748 µM
16 | O=C(N[C@H]1C[C@H]2CC[C@@H](C1)N2S(=O)(=O)C[C@H]1CCCCN1)c1cc(C2CC2)on1 [compound 971, 5-cyclopropyl-N-((1R,3R,5S)-8-((((R)-piperidin-2-yl)methyl)sulfonyl)-8-azabicyclo[3.2.1]octan-3-yl)isoxazole-3-carboxamide] |  |  | 0.0909 µM | 0.466 µM
17 | C[C@H]1C[C@@H](NC(=O)c2cc(C3CC3)on2)CCN1S(=O)(=O)N1CCC(NC(C)(C)c2ccccc2)CC1 [compound 972, 5-cyclopropyl-N-((2S,4S)-2-methyl-1-((4-((2-phenylpropan-2-yl)amino)piperidin-1-yl)sulfonyl)piperidin-4-yl)isoxazole-3-carboxamide] |  |  | 0.0933 µM | 1.27 µM
18 | CN(CCN1CCOCC1)C1CCN(S(=O)(=O)N2[C@@H]3CC[C@H]2C[C@@H](NC(=O)c2cc(C4CC4)on2)C3)CC1 [compound 973, 5-cyclopropyl-N-((1R,3r,5S)-8-((4-(methyl(2-morpholinoethyl)amino)piperidin-1-yl)sulfonyl)-8-azabicyclo[3.2.1]octan-3-yl)isoxazole-3-carboxamide] |  |  | 0.0953 µM | 1.02 µM
19 | CC[C@@H]1CN(S(=O)(=O)N2CC[C@H](NC(=O)c3cc(C4CC4)on3)C[C@@H]2C)CCN1 [compound 974, 5-cyclopropyl-N-((2S,4S)-1-(((R)-3-ethylpiperazin-1-yl)sulfonyl)-2-methylpiperidin-4-yl)isoxazole-3-carboxamide] |  |  | 0.099 µM | 0.807 µM
20 | CC(C)C1CNCCN1S(=O)(=O)N1CC[C@H](NC(=O)c2cc(C3CC3)on2)C[C@@H]1C (stereo partly drawn) [compound 975, 5-cyclopropyl-N-((2S,4S)-1-((2-isopropylpiperazin-1-yl)sulfonyl)-2-methylpiperidin-4-yl)isoxazole-3-carboxamide] |  |  | 0.101 µM | 0.914 µM
21 | CN1CCCC[C@H]1CS(=O)(=O)N1[C@@H]2CC[C@H]1C[C@@H](NC(=O)c1cc(C3CC3)on1)C2 [compound 976, 5-cyclopropyl-N-((1R,3S,5S)-8-((((S)-1-methylpiperidin-2-yl)methyl)sulfonyl)-8-azabicyclo[3.2.1]octan-3-yl)isoxazole-3-carboxamide] |  |  | 0.105 µM | 0.555 µM
22 | CN1CC2CCC(C1)N2S(=O)(=O)N1[C@@H]2CC[C@H]1C[C@@H](NC(=O)c1cc(C3CC3)on1)C2 [compound 977, 5-cyclopropyl-N-((1R,3r,5S)-8-((3-methyl-3,8-diazabicyclo[3.2.1]octan-8-yl)sulfonyl)-8-azabicyclo[3.2.1]octan-3-yl)isoxazole-3-carboxamide] |  |  | 0.107 µM | 0.742 µM
23 | CC(C)(NC1CCN(S(=O)(=O)N2[C@@H]3CC[C@H]2C[C@@H](NC(=O)c2cc(C4CC4)on2)C3)CC1)c1ccccc1 [compound 978, 5-cyclopropyl-N-((1R,3r,5S)-8-((4-((2-phenylpropan-2-yl)amino)piperidin-1-yl)sulfonyl)-8-azabicyclo[3.2.1]octan-3-yl)isoxazole-3-carboxamide] |  |  | 0.117 µM | 1.33 µM
24 | CN1CCC[C@H]1CS(=O)(=O)N1[C@@H]2CC[C@H]1C[C@@H](NC(=O)c1cc(C3CC3)on1)C2 [compound 979, 5-cyclopropyl-N-((1R,3S,5S)-8-((((S)-1-methylpyrrolidin-2-yl)methyl)sulfonyl)-8-azabicyclo[3.2.1]octan-3-yl)isoxazole-3-carboxamide] |  |  | 0.119 µM | 0.436 µM
25 | C[C@H]1C[C@@H](NC(=O)c2cc(C3CC3)on2)CCN1S(=O)(=O)N1CCN(C)C[C@@H]1C [compound 980, 5-cyclopropyl-N-((2S,4S)-1-(((S)-2,4-dimethylpiperazin-1-yl)sulfonyl)-2-methylpiperidin-4-yl)isoxazole-3-carboxamide] |  |  | 0.12 µM | 0.697 µM
